Measurements: patent US20160317420A1, “METHOD OF IMPROVING THE APPEARANCE OF SKIN AND COMPOSITIONS THEREFOR” (The Procter & Gamble Company, priority 2015, published 2016)

How the values were obtained:
[1] = test system: HMGB1 released from human neonatal keratinocytes exposed to CSE; test: HMGB1 Assay (in vitro stress test, cigarette smoke extract); format: cell-based; details: 0.01% w/v + CSE; for AVG HMGB1 released: keratinocytes, 24 hours, ELISA; for effect on the amount of HMGB1 released by keratinocytes exposed to CSE, relative to CSE test medium: p<0.1 significant
Method: Human neonatal keratinocytes (available from Thermo) were placed in each well of four 12-well plates. Each well also contained 2 ml of EPILIFE brand keratinocyte medium. The plates were incubated at 37 ° C. in a CO2 incubator until cell confluency reached 70%. Once the cell confluency reached 70%, the keratinocyte medium in each well was replaced with the appropriate medium for the test (i.e., control medium, CSE test medium, niacinamide (“N”)+CSE test medium or nicotinamide riboside chloride (“NR”)+CSE test medium) to produce test samples. The resulting test samples were incubated for 24 hours at 37 ° C. in a CO2 incubator, after which the medium in each cell was removed and the HMGB 1 levels were determined using an ELISA kit from IBL according to the manufacturer's instructions.
The N and NR media were made by adding either niacinamide or nicotinamide riboside chloride (available from Chromadex, Irvine, Calif.) to EPILIFE brand keratinocyte medium to produce a 0.01% w/v solution. The cigarette smoke extract was made by suctioning a lit cigarette through a vacuum flask containing 60 mL of phosphate buffered saline (“PBS”). 4 CAMEL brand cigarettes with the filters cut off were used to create a batch of CSE. The CSE was diluted 1:20 using keratinocyte medium to create the CSE test medium. The N+CSE medium and NR+CSE medium were prepared by adding CSE test medium to final dilution of 1:6 (CSE:medium) and either N or NR to final dilution of 0.01% w/v. Unmodified keratinocyte medium was used as the control.

[2] = test system: glycation reaction between the gelatin and glyceraldehyde; test: AGE Assay (in vitro suppression of AGE formation and yellowness reduction); format: biochemical; details: for % reduction in glycation rate vs. pos. ctrl.: 24-hr; for Δb* at 24-hr vs. 0-hour: blank-corrected yellowness; for ΔFLR at 24-hr vs. 0-hr: fluorescence 400/465 nm, 24 hours at 37° C.
Method: The anti-glycation ability of NR was determined as follows. Samples were prepared in a 96-well plate (3 replicates each) at a total volume of 250 μl/well. The test samples contained 112.5 μl of 2% w/v gelatin solution (commercially available from Sigma as Catalog # G1393-100 ML), 10 μl of 1 M glyceraldehyde (commercially available from Sigma as Catalog # G5001-1 G), 102.5 p1 Dulbecco's phosphate buffered saline (“DPBS”) (commercially available from Gibco's), and varying doses (0.1%, 0.5%, 1% and 5% w/v) of nicotinamide riboside chloride (“NR”) (available from Chromadex, Irvine, CA). The positive control contained 112.5 μl gelatin, 10 μl of 1 M glyceraldehyde and 127.5 μl DPBS. The negative control contained 112.5 μl gelatin and 137.5 μl DPBS. A 5% w/v niacinamide (“N”) composition was used for a benchmark comparison. The niacinamide sample contained the same amounts of gelatin, glyceraldehyde and DPBS as the 5% NR sample. The plate containing the test samples was placed in a CO2 incubator (e.g., THERMO SCIENTIFIC FORMA brand CO2 incubator available from Fisher Scientific, Waltham, Mass. or equivalent) and incubated for 24 hours at 37° C.
After 24 hours, the plate containing the test samples was removed from the incubator and placed in a SPECTRAMAX Plus brand spectrophotometer (available from Molecular Devices, Sunnyvale, Calif.). The spectrophotometer was set to detect fluorescence intensity (“FLR”) at 400/465 nm (ex/em). Glycation rate was determined by measuring FLR, at 0-hour (i.e., at the start of the test), 2-hour, 5-hour and 24-hour time points. The change in fluorescence intensity (“ΔFLR”) was determined by comparing the FLR of a well at a sampling time point to the 0-hour time point. To determine yellowness (i.e., b* value), a SPECTRAMAX Plus brand spectrophotometer was used to collect wavelength/absorbance pairs from 350 nm to 750 nm in 10 nm increments following the same time course as the FLR measurements (i.e., 0-hour, 2-hour, 5-hour and 24-hour). The wavelength/absorbance pairs were then converted to L*a*b* values by a computer using conversion software. The change in yellowness (“Ab*”) at a particular time point was determined by subtracting the b* value at the 0-hour time point from the b* value measured at the time point of interest. To correct for yellowness that is not due to the glycation reaction between the gelatin and glyceraldehyde, a blank well was set up for each treatment leg. The blank well contains every ingredient in the corresponding treatment leg except for the gelatin. The b* value of the blank well is subtracted from the b* value measured for each well before calculating the final Ab* value.

Structure (SMILES): NC(=O)c1cccnc1 [N, niacinamide, reference compound]
- AVG HMGB1 released [1]: 4.2790 ng/mL
- effect on the amount of HMGB1 released by keratinocytes exposed to CSE, relative to CSE test medium [1]: no significant effect
- % reduction in glycation rate vs. pos. ctrl. ([2]; 5% w/v): 33.2%
- Δb* at 24-hr vs. 0-hour ([2]; 5% w/v): 9.19
- ΔFLR at 24-hr vs. 0-hr ([2]; 5% w/v): 2341

Structure (SMILES): NC(=O)c1ccc[n+]([C@@H]2O[C@H](CO)[C@@H](O)[C@H]2O)c1 [NR, nicotinamide riboside chloride]
- AVG HMGB1 released [1]: 2.0741 ng/mL
- effect on the amount of HMGB1 released by keratinocytes exposed to CSE, relative to CSE test medium [1]: significantly reduce
- % reduction in glycation rate vs. pos. ctrl. ([2]; 0.1% w/v): 22.2%
- Δb* at 24-hr vs. 0-hour ([2]; 0.1% w/v): 9.44
- ΔFLR at 24-hr vs. 0-hr ([2]; 0.1% w/v): 2729
- % reduction in glycation rate vs. pos. ctrl. ([2]; 0.5% w/v): 63%
- Δb* at 24-hr vs. 0-hour ([2]; 0.5% w/v): −4.24
- ΔFLR at 24-hr vs. 0-hr ([2]; 0.5% w/v): 1294
- % reduction in glycation rate vs. pos. ctrl. ([2]; 1% w/v): 85.5%
- Δb* at 24-hr vs. 0-hour ([2]; 1% w/v): −11.00
- ΔFLR at 24-hr vs. 0-hr ([2]; 1% w/v): 507
- % reduction in glycation rate vs. pos. ctrl. ([2]; 5% w/v): 98.8%
- Δb* at 24-hr vs. 0-hour ([2]; 5% w/v): −2.09
- ΔFLR at 24-hr vs. 0-hr ([2]; 5% w/v): 41
